Assay results reported in ChEMBL document CHEMBL4507284, “Data for DCP probe BI-1230” (2021).

What was measured:
[1] = biological target: Phosphatidylinositol 4,5-bisphosphate 3-kinase catalytic subunit beta isoform (Homo sapiens) (UniProt P42338); conditions: Compound concentration 1000.0 nM
[2] = biological target: Dual specificity protein kinase TTK (Homo sapiens) (UniProt P33981); conditions: Compound concentration 1000.0 nM
[3] = biological target: Cyclin-dependent kinase 7 (Homo sapiens) (UniProt P50613); conditions: Compound concentration 1000.0 nM
[4] = biological target: Serine/threonine-protein kinase mTOR (Homo sapiens) (UniProt P42345); conditions: Compound concentration 1000.0 nM
[5] = biological target: Homeodomain-interacting protein kinase 4 (Homo sapiens) (UniProt Q8NE63); conditions: Compound concentration 1000.0 nM
[6] = biological target: Discoidin domain-containing receptor 2 (Homo sapiens) (UniProt Q16832); conditions: Compound concentration 1000.0 nM
[7] = biological target: STE20/SPS1-related proline-alanine-rich protein kinase (Homo sapiens) (UniProt Q9UEW8); conditions: Compound concentration 1000.0 nM
[8] = test system: Tyrosine-protein kinase ABL1 (Homo sapiens), P00519 [Q252H]; conditions: Compound concentration 1000.0 nM
[9] = biological target: Rhodopsin kinase GRK7 (Homo sapiens) (UniProt Q8WTQ7); conditions: Compound concentration 1000.0 nM
[10] = biological target: Serine/threonine-protein kinase Nek2 (Homo sapiens) (UniProt P51955); conditions: Compound concentration 1000.0 nM
[11] = biological target: 5-hydroxytryptamine receptor 1B (Homo sapiens) (UniProt P28222); conditions: Compound concentration 10.0 uM
[12] = biological target: Mitogen-activated protein kinase 8 (Homo sapiens) (UniProt P45983); conditions: Compound concentration 1000.0 nM
[13] = biological target: Aurora kinase A (Homo sapiens) (UniProt O14965); conditions: Compound concentration 1000.0 nM
[14] = biological target: Serine/threonine-protein kinase 33 (Homo sapiens) (UniProt Q9BYT3); conditions: Compound concentration 1000.0 nM
[15] = biological target: Mitogen-activated protein kinase kinase kinase kinase 4 (Homo sapiens) (UniProt O95819); conditions: Compound concentration 1000.0 nM
[16] = biological target: Phosphatidylinositol 4-phosphate 3-kinase C2 domain-containing subunit beta (Homo sapiens) (UniProt O00750); conditions: Compound concentration 1000.0 nM
[17] = biological target: Mitogen-activated protein kinase kinase kinase 6 (Homo sapiens) (UniProt O95382); conditions: Compound concentration 1000.0 nM
[18] = biological target: Dual specificity mitogen-activated protein kinase kinase 4 (Homo sapiens) (UniProt P45985); conditions: Compound concentration 1000.0 nM
[19] = biological target: Serine/threonine-protein kinase Nek9 (Homo sapiens) (UniProt Q8TD19); conditions: Compound concentration 1000.0 nM
[20] = test system: Epidermal growth factor receptor (Homo sapiens), P00533 [UNDEFINED MUTATION]; conditions: Compound concentration 1000.0 nM
[21] = biological target: Sigma non-opioid intracellular receptor 1 (Homo sapiens) (UniProt Q99720); conditions: Compound concentration 10.0 uM
[22] = biological target: Serine/threonine-protein kinase N2 (Homo sapiens) (UniProt Q16513); conditions: Compound concentration 1000.0 nM
[23] = test system: Epidermal growth factor receptor (Homo sapiens), P00533 [UNDEFINED MUTATION]; conditions: Compound concentration 1000.0 nM; remark: listed apart in the source
[24] = biological target: Vascular endothelial growth factor receptor 2 (Homo sapiens) (UniProt P35968); conditions: Compound concentration 1000.0 nM
[25] = biological target: Mitogen-activated protein kinase kinase kinase 15 (Homo sapiens) (UniProt Q6ZN16); conditions: Compound concentration 1000.0 nM
[26] = biological target: Calcium/calmodulin-dependent protein kinase type 1G (Homo sapiens) (UniProt Q96NX5); conditions: Compound concentration 1000.0 nM
[27] = test system: Mast/stem cell growth factor receptor Kit (Homo sapiens), P10721 [L576P]; conditions: Compound concentration 1000.0 nM
[28] = test system: Phosphatidylinositol 4,5-bisphosphate 3-kinase catalytic subunit alpha isoform (Homo sapiens), P42336 [E542K]; conditions: Compound concentration 1000.0 nM
[29] = biological target: Protein kinase C delta type (Homo sapiens) (UniProt Q05655); conditions: Compound concentration 1000.0 nM
[30] = biological target: Mitogen-activated protein kinase 6 (Homo sapiens) (UniProt Q16659); conditions: Compound concentration 1000.0 nM
[31] = biological target: Myosin light chain kinase (Homo sapiens) (UniProt Q32MK0); conditions: Compound concentration 1000.0 nM
[32] = biological target: Tyrosine-protein kinase Yes (Homo sapiens) (UniProt P07947); conditions: Compound concentration 1000.0 nM
[33] = biological target: Mitotic checkpoint serine/threonine-protein kinase BUB1 (Homo sapiens) (UniProt O43683); conditions: Compound concentration 1000.0 nM
[34] = test system: Mast/stem cell growth factor receptor Kit (Homo sapiens), P10721 [V559D]; conditions: Compound concentration 1000.0 nM
[35] = biological target: Serine/threonine-protein kinase PLK3 (Homo sapiens) (UniProt Q9H4B4); conditions: Compound concentration 1000.0 nM
[36] = biological target: Dual specificity tyrosine-phosphorylation-regulated kinase 2 (Homo sapiens) (UniProt Q92630); conditions: Compound concentration 1000.0 nM
[37] = biological target: Phosphorylase b kinase gamma catalytic chain, skeletal muscle/heart isoform (Homo sapiens) (UniProt Q16816); conditions: Compound concentration 1000.0 nM
[38] = biological target: Cyclin-dependent kinase 2 homolog (Plasmodium falciparum (isolate 3D7)) (UniProt P61075); conditions: Compound concentration 1000.0 nM
[39] = biological target: Serine/threonine-protein kinase Sgk3 (Homo sapiens) (UniProt Q96BR1); conditions: Compound concentration 1000.0 nM
[40] = biological target: RAC-beta serine/threonine-protein kinase (Homo sapiens) (UniProt P31751); conditions: Compound concentration 1000.0 nM
[41] = biological target: Tyrosine-protein kinase BTK (Homo sapiens) (UniProt Q06187); conditions: Compound concentration 1000.0 nM
[42] = biological target: Ephrin type-A receptor 1 (Homo sapiens) (UniProt P21709); conditions: Compound concentration 1000.0 nM
[43] = biological target: Serine/threonine-protein kinase D1 (Homo sapiens) (UniProt Q15139); conditions: Compound concentration 1000.0 nM
[44] = biological target: Mitogen-activated protein kinase 3 (Homo sapiens) (UniProt P27361); conditions: Compound concentration 1000.0 nM
[45] = biological target: Myotonin-protein kinase (Homo sapiens) (UniProt Q09013); conditions: Compound concentration 1000.0 nM

Chain of Epidermal growth factor receptor (Homo sapiens), P00533 [UNDEFINED MUTATION] (P00533 whole entry, looked up, change not shown): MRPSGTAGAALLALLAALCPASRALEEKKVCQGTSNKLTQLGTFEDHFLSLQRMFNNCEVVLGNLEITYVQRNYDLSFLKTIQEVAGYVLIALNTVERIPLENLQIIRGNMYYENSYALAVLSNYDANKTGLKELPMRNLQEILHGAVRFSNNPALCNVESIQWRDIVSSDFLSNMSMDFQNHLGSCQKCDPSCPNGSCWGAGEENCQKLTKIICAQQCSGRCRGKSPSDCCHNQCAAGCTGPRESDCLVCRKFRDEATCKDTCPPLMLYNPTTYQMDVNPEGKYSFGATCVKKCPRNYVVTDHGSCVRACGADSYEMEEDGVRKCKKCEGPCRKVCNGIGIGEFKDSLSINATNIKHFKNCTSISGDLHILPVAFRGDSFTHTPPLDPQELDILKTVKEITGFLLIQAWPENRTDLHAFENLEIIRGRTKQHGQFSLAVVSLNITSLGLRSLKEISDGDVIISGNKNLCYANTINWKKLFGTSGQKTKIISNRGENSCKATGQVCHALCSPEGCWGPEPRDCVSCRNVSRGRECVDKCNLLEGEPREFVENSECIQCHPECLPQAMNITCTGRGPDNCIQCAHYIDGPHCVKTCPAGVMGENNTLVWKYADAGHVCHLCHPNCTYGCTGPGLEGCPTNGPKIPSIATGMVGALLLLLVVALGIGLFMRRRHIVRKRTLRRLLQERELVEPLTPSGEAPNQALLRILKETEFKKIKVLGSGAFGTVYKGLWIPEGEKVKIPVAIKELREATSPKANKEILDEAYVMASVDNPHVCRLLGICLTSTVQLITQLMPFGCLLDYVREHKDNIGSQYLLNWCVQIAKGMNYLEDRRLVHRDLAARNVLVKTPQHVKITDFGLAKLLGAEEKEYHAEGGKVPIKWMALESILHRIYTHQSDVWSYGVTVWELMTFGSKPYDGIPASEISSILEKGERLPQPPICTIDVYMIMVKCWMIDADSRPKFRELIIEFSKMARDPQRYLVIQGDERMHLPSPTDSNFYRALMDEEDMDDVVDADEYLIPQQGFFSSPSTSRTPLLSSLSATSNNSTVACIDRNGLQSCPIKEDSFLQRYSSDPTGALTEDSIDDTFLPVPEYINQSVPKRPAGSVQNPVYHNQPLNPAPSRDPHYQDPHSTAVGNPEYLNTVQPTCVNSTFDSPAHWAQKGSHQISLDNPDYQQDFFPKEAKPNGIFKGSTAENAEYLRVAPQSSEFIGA
Chain of Rhodopsin kinase GRK7 (Homo sapiens) (Q8WTQ7 whole entry): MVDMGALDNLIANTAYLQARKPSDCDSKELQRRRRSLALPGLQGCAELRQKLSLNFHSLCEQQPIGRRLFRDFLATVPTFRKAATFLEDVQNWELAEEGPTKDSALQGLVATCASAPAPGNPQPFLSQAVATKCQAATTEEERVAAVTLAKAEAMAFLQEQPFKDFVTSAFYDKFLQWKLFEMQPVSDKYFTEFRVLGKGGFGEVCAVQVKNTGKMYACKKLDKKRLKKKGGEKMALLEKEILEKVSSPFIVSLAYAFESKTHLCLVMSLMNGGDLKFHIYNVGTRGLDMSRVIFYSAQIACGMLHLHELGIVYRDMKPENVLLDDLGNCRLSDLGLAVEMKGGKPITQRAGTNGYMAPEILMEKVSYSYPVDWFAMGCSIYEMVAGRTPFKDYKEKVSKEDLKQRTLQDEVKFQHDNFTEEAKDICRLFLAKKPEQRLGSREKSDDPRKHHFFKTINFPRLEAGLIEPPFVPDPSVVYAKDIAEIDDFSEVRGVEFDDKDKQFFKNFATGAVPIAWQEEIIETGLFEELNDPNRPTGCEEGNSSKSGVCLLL
Chain of Homeodomain-interacting protein kinase 4 (Homo sapiens) (Q8NE63 whole entry, the tested form may be a part): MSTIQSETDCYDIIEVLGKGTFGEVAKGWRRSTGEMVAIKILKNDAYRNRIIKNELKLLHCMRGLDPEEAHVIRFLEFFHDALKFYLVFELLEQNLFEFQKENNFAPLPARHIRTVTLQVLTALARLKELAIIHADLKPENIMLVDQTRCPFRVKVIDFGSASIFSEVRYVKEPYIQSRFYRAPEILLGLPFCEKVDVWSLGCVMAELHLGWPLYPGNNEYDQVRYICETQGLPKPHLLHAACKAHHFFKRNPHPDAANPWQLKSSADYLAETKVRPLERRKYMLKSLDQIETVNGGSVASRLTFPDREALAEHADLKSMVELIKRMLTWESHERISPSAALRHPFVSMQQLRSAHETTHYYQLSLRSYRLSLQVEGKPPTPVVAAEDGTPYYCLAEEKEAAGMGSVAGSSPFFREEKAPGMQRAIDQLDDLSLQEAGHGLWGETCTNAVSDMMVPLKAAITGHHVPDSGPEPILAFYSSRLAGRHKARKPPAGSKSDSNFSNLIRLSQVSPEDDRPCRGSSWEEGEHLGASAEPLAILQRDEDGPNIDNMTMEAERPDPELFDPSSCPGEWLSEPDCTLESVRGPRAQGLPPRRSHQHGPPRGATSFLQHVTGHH
Chain of Mitotic checkpoint serine/threonine-protein kinase BUB1 (Homo sapiens) (O43683 whole entry, looked up): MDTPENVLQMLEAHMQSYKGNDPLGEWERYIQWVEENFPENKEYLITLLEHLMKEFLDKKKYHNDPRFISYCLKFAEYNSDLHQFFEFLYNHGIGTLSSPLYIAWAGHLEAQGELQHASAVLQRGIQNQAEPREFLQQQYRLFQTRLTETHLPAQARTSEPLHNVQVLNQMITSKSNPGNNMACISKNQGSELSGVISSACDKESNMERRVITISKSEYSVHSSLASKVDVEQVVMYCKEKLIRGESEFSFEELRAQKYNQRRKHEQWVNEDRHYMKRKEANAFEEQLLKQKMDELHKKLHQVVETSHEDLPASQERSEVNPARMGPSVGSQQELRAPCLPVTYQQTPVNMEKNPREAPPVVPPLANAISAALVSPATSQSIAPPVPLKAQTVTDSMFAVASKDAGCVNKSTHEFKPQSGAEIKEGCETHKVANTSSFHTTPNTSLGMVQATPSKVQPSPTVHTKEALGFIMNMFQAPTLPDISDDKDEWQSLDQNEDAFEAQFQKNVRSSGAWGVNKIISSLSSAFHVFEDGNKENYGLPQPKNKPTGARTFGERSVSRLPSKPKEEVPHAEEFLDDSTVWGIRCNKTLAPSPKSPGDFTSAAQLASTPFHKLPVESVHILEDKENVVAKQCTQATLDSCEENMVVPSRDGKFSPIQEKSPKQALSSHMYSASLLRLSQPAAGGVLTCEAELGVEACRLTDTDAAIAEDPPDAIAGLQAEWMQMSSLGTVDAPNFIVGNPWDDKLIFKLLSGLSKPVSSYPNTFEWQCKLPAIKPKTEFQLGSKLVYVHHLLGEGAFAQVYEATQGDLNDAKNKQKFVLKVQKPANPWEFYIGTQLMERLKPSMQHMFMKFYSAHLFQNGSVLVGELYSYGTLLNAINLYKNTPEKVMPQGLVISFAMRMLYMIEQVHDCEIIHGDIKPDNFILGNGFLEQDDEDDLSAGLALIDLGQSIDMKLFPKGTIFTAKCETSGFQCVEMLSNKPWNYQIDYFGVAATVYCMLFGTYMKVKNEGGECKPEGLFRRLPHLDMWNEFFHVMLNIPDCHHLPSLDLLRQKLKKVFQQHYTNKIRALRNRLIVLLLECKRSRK
Chain of Dual specificity mitogen-activated protein kinase kinase 4 (Homo sapiens) (P45985 whole entry): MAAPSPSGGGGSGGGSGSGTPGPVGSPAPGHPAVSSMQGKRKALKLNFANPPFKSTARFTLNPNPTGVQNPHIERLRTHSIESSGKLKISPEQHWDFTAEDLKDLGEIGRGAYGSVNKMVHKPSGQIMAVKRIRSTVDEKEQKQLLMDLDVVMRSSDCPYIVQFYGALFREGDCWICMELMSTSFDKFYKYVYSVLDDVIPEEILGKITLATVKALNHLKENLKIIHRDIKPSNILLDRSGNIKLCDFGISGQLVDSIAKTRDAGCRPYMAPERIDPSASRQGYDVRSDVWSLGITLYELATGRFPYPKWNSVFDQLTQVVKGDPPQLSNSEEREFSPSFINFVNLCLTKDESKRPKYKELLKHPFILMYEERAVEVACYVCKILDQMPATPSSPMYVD
Chain of Serine/threonine-protein kinase D1 (Homo sapiens) (Q15139 whole entry): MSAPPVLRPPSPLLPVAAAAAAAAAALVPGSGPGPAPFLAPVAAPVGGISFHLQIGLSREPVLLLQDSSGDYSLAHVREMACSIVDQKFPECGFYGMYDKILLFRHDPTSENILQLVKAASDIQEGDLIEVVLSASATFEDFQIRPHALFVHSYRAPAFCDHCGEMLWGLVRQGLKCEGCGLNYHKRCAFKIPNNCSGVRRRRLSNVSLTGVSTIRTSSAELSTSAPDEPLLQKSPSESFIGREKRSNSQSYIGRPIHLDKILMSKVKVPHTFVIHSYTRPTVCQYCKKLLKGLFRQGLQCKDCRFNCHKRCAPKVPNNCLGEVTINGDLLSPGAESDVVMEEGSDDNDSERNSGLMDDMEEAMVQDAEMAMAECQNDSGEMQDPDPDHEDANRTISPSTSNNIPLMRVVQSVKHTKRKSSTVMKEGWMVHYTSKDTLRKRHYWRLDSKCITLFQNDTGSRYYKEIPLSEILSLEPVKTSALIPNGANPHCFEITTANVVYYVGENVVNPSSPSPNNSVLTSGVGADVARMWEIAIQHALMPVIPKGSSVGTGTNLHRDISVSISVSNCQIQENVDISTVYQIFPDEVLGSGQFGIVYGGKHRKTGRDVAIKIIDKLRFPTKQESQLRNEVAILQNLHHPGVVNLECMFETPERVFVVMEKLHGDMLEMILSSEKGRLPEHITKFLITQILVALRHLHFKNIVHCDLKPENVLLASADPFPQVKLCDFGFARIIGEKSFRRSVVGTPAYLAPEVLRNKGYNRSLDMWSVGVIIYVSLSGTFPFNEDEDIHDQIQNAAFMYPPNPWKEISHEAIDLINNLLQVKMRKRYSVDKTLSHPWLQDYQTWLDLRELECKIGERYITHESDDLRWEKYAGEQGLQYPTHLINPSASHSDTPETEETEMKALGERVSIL
Chain of Sigma non-opioid intracellular receptor 1 (Homo sapiens) (Q99720 whole entry): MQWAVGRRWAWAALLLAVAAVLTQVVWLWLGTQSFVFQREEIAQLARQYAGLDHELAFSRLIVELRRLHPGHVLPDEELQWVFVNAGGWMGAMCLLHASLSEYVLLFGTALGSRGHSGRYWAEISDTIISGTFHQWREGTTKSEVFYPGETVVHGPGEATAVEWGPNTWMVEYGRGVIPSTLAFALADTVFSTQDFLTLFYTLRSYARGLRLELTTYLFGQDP

## O=C(N[C@H]1CCCCC/C=C\C2C[C@@]2(C(=O)O)NC(=O)[C@@H]2C[C@@H](Oc3ccncc3)CN2C1=O)OC1CCCC1 (stereo not given in full) [BI 1675]
[1]
  residual activity: 100%
[2]
  residual activity: 79%
[3]
  residual activity: 71%
[4]
  residual activity: 100%
[5]
  residual activity: 100%
[6]
  residual activity: 100%
[7]
  residual activity: 100%
[8]
  residual activity: 65%
[9]
  residual activity: 100%
[10]
  residual activity: 94%
[11]
  inhibition: -3.04%
[12]
  residual activity: 86%
[13]
  residual activity: 92%
[14]
  residual activity: 89%
[15]
  residual activity: 100%
[16]
  residual activity: 84%
[17]
  residual activity: 100%
[18]
  residual activity: 73%
[19]
  residual activity: 100%
[20]
  residual activity: 49%
[21]
  inhibition: 11.1%
[22]
  residual activity: 75%
[23]
  residual activity: 100%
[24]
  residual activity: 100%
[25]
  residual activity: 68%
[26]
  residual activity: 76%
[27]
  residual activity: 91%
[28]
  residual activity: 96%
[29]
  residual activity: 100%
[30]
  residual activity: 92%
[31]
  residual activity: 75%
[32]
  residual activity: 100%
[33]
  residual activity: 100%
[34]
  residual activity: 89%
[35]
  residual activity: 100%
[36]
  residual activity: 66%
[37]
  residual activity: 88%
[38]
  residual activity: 78%
[39]
  residual activity: 100%
[40]
  residual activity: 85%
[41]
  residual activity: 100%
[42]
  residual activity: 90%
[43]
  residual activity: 96%
[44]
  residual activity: 69%
[45]
  residual activity: 89%

## COc1ccc2c(O[C@@H]3C[C@H]4C(=O)N[C@]5(C(=O)O)CC5/C=C\CCCCC[C@H](NC(=O)OC5CCCC5)C(=O)N4C3)cc(-c3csc(NC(=O)C(C)C)n3)nc2c1C (stereo not given in full) [BI 1230]
[1]
  residual activity: 62%
[2]
  residual activity: 100%
[3]
  residual activity: 62%
[4]
  residual activity: 100%
[5]
  residual activity: 99%
[6]
  residual activity: 88%
[7]
  residual activity: 100%
[8]
  residual activity: 70%
[9]
  residual activity: 87%
[10]
  residual activity: 94%
[11]
  inhibition: 7.71%
[12]
  residual activity: 81%
[13]
  residual activity: 69%
[14]
  residual activity: 54%
[15]
  residual activity: 100%
[16]
  residual activity: 82%
[17]
  residual activity: 98%
[18]
  residual activity: 100%
[19]
  residual activity: 100%
[20]
  residual activity: 75%
[21]
  inhibition: 42.1%
[22]
  residual activity: 67%
[23]
  residual activity: 98%
[24]
  residual activity: 83%
[25]
  residual activity: 70%
[26]
  residual activity: 98%
[27]
  residual activity: 90%
[28]
  residual activity: 71%
[29]
  residual activity: 84%
[30]
  residual activity: 93%
[31]
  residual activity: 100%
[32]
  residual activity: 100%
[33]
  residual activity: 96%
[34]
  residual activity: 91%
[35]
  residual activity: 79%
[36]
  residual activity: 77%
[37]
  residual activity: 96%
[38]
  residual activity: 83%
[39]
  residual activity: 75%
[40]
  residual activity: 89%
[41]
  residual activity: 85%
[42]
  residual activity: 88%
[43]
  residual activity: 89%
[44]
  residual activity: 94%
[45]
  residual activity: 83%
